From patent US10603279B2, “Compositions of lopinavir” (The University of Liverpool, priority 2011, dated 2020)

Tests used:
[1] = molecular target: recombinant HIV-1 protease (UniProt P04585); assay: Inhibition of recombinant HIV-1 protease; type: biochemical; conditions: 70% loaded; cell-free assay; read-out: IC50 against recombinant HIV protease
Description: HIV-1 protease inhibition screening was conducted as per manufacturers' instructions (Roche Diagnostics GmbH; Germany). […] The entire sample (60 μl) was then transferred into microplate modules and incubated for a further 60 minutes at 37° C. The samples were then aspirated and washed ×5 with 250 μl of wash buffer. After the final aspiration, 200 μl of reconstituted anti-digoxigenin-peroxidase (Anti-DIG-POD) polyclonal antibody (200 mU/ml final concentration) was added to all wells and the plate returned to the incubator for a further 60 minutes at 37° C. The samples were aspirated and washed ×5 with wash buffer. Finally, after the final wash buffer was aspirated, 200 μl of ABTS substrate was added to each well and the plate incubated at room temperature for 15 minutes. Absorbance was then measured at 405 nm using FLUOstar Omega microplate reader (BMG Labtech, Uk).

HIVIIIB = assay: Inhibition of cultured HIV-IIIB in MT4 cells (MTT assay); type: cell-based, HIVIIIB in human T-cell line MT4; conditions: Human immunodeficiency virus 1, 120 h, 70% loaded, 5 days, read-out: IC50 (Table 10, activity against cultured HIV virus)
Description: HIVIIIB and the human T-cell line, MT4, were supplied by the National Institute for Biological Standards and Control (NIBSC), the Centre for AIDS Reagents (CFAR: Hertfordshire, Uk). MT4 cells were grown and routinely maintained in RPMI-1640 (Sigma; Dorest, Uk) supplemented with 10% fetal bovine serum (FBS; Bio-Whittaker, Berkshire, Uk) at 37° C. and 5% CO2 and sub-cultured every 3 days. Cell counts and viability was determined by Trypan Blue exclusion using a disposable plastic haemocytometer (Labtech International Ltd, UK). HIVIIIB was propagated by passage through MT4 cells in RPMI-1640 and 10% FBS for 12 days and a subsequent multiplicity of infection (MOI) was determined by MTT assay.
MT4 cells were dispensed into 50 ml falcon tubes and centrifuged at 2000 rpm and 4° C. for 5 minutes. The supernantant was aspirated and the resulting pellet resuspended to a cell density of 1×10^5/ml in RPMI 1640 supplemented with 10% FBS and 1 ml of viral isolate (M.O.I 0.001). After further centrifugation for 5 minutes at 2000 rpm, the MT4/HIVIIIB pellet was incubated at 37° C. and 5% CO2 for 2 hours. […]
Following incubation for 5 days of MT4/HIVIIIB with nano formulated LOPINAVIR at 37° C. and 5% CO2. […] Absorbance was read at 570 nm on a plate reader (Tecan Magellan, Austria).

[2] = ATP cell viability assay (CellTiter-Glo) cytotoxicity; type: cell-based; conditions: human, 70% lopinavir loaded, 24 hours incubation
Description: (§1) HepG2 (hepatic) and Caco-2 (intestinal) cells were purchased from American Type Tissue Culture (ATCC; USA) and maintained in Dulbecco's modified eagle's medium (DMEM; Sigma; Dorest, Uk) supplemented with 10% fetal bovine serum (FBS; Bio-Whittaker, Berkshire, Uk) for HepG2 and 15% FBS for Caco-2. CEM (lymphocyte) and THP-1 (monocyte) cells were purchased from European Collection of Cell Culture (ECACC; Porton Down, Uk) and grown in RPMI-1640 (Sigma; Dorest, Uk) supplemented with 10% FBS. All cell lines were incubated at 37° C. and 5% CO2 and for adherent cells (HepG2 and Caco-2) were routinely sub-cultured every 4 days when 95% confluent. Suspension cells (CEM and THP-1) were routinely sub-cultured when a density of 1×10^6 cells/ml was achieved. Cell count and viability was determined by Trypan Blue exclusion assay.
(§2) HepG2, Caco-2, THP-1, CEM and A-THP-1 cells were separately seeded at a density of 2.5×10^4/100 μl in their appropriate media into each well of a 96 well plate (Nunclon™, Denmark) and incubated for 24 hours at 37° C. and 5% CO2. Media was then aspirated and replaced with media containing 0.1, 1, 10, 100, 500 or 1000 μM, calculated from molarity of lopinavir (145 samples), of each lopinavir dispersion and incubated for a further 24 hours. The same procedure was followed for each individual excipient (23 samples) with concentrations range of 1 μM to 1M.
Prior to starting viability assays, all reagents were made fresh and in accordance to manufacturer's instructions and allowed to equilibrate to room temperature immediately before use. After 24 hours incubation, 96 well plates were removed from the incubator and the plate and its contents allowed too equilibrate to room temperature for approximately 30 minutes. After 30 minutes, 80 μl of media was aspirated from each individual well and 20 μl CellTiter-Glo® Reagent (Promega, UK) was added to the remaining media and cells. The contents were then mixed for 2 minutes on an orbital shaker to induce cell lysis. The plate was then further incubated at room temperature for 10 minutes to stabilise luminescent signal. Luminescence was then measured using a Tecan Genios plate reader (Tecan; Austria).

[3] = as above; type: cell-based; conditions: human, A-THP-1 (PMA-activated THP-1, macrophage like) cells, 70% lopinavir loaded, 24 hours incubation
Description: as §1, with “assay. […]” for “assay.”
as §2, with “The same procedure was followed for each individual excipient (23 samples) with concentrations range of 1 μM to 1M.” left out

## Cc1cccc(C)c1OCC(=O)N[C@@H](Cc1ccccc1)[C@@H](O)C[C@H](Cc1ccccc1)NC(=O)[C@H](C(C)C)N1CCCNC1=O [Aqueous solution, lopinavir]
[1]
  IC50: 0.032 µM
HIVIIIB
  IC50: 0.056 µM
[2]; CEM (lymphocyte) cells
  IC50 at 24 h: 100 µM
[2]; Caco-2 (intestinal) cells
  IC50 at 24 h: 52.5 µM
[2]; HepG2 (hepatic) cells
  IC50 at 24 h: 35.8 µM
[2]; THP-1 (monocyte) cells
  IC50 at 24 h: 28.3 µM
[3]
  IC50 at 24 h: 84.3 µM
